Legend:
HCT116 cells = assay: Growth suppression in the presence of antioxidant NAC; type: cell-based; conditions: HCT116, 5 mM NAC pre-treatment 16h; 2.5, 5 and 10 µM; 24h after treatment
Procedure: Cells were grown in 96-well plates at a density of 3000 cells per well with or without doxycycline and treated with compounds. After 48 hours of incubation the proliferative cell reagent resazurin (Thermo Fisher Scientific) was added to the cells. The degree of resazurin reduction, which reflects cell viability, was measured by microplate reader by monitoring the absorbance at 570 nm and 600 nm, according to the manufacturer.
To find out whether oxidative stress plays a role in cancer cell death induced by 1d*HCl, we tested the extent of growth suppression by the treatment in the presence of antioxidant N-acetyl cysteine (NAC), which neutralize ROS. We pre-treated HCT116 cells with 5 mM NAC. After 16h of incubation with NAC, we treated HCT116 cells with 2.5, 5, and 10 µM of 1d*HCl. We measured the growth suppression 24h after treatment. […] Thus, we conclude that the mechanism of cancer cell growth suppression is dependent on the induction of oxidative stress by the compounds of the present invention.

TrxRl = target: T1, TrxRl (Homo sapiens, UniProt Q16881); assay: TrxR1 enzymatic activity measurement in cellulo (TXN-dependent insulin reduction assay); type: cell-based; conditions: MCF7 breast cancer cells, 5 or 10 µM, 2h after treatment, depending on concentration
T1 construct: endogenous in cells; host or cells: MCF7 (A37, A39); HCT116 (A39)
T1 sequence (Q16881 151-649): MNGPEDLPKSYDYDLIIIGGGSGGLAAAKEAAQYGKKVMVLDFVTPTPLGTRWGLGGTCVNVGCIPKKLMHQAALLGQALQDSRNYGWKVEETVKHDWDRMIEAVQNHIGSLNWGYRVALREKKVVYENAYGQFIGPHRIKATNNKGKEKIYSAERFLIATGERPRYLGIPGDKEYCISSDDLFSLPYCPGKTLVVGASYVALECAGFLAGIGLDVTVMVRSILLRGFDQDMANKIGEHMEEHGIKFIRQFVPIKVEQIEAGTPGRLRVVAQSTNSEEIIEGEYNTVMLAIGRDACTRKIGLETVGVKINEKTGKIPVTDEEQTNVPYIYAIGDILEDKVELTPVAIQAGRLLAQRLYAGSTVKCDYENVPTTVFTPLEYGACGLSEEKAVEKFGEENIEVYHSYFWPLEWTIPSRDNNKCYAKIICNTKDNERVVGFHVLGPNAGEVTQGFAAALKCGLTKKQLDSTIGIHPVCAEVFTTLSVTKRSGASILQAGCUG
Procedure: MCF7 cells were treated with 5 or 10 µM 1d*HCl or DMSO as a control. Cells were collected 2 h and 6 h after treatment, washed twice with PBS, and lysed in 100 µL of lysis buffer (50 mM Tris-HCl, 2mM EDTA, 0.15 M NaCl, 1% Triton X-100, protease inhibitors (Roche), pH 7.5). Cells were scraped, collected and snap frozen. After three freeze-thawing cycles the lysate was spinned down, supernatant collected and protein concentration measured using Pierce bicinchoninic acid assay kit (BCA, from Thermofisher Scientific) according to the manufacturer's protocol. To measure TrxR activity, the end-point TXN-dependent insulin reduction assay was used, essentially as described previously (WC Stafford, et al, Irreversible inhibition of cytosolic thioredoxin reductase 1 as a mechanistic basis for anti-cancer therapy, Sci Transl Med (2018), Feb 14;10(428):eaaf7444. doi: 10.1126/scitranslmed.aaf7444). […] After 0, 15 and 30 min, 10 µL aliquots were taken and combined with 6 M guanidine-HCl and 2.5 mM DTNB in 96-well plates (PerkinElmer), whereupon the absorbance at 412 nm was measured using microplate spectrophotometer (TECAN). Levels of active TrxR were normalised to DMSO control samples from each treatment timepoint.
Having established that 1d*HCl inhibits TrxR1activity in vitro, it was important to confirm that 1d*HCl targets TrxRl in living cells. […]

[1] = Growth suppression with selenium in culture medium; type: cell-based; conditions: selenium added to culture medium
Excerpt: To find out whether the inhibition of TrxRl is the major mechanism of action of 1d*HCl, we addressed the question, whether stimulation of TrxRl activity will decrease the growth suppression activity of 1d*HCl. Since TrxR is a selenium-containing enzyme and the concentration of selenium is rate-limiting for TrxRl, we added selenium to culture medium to test whether selenium will alleviate the growth suppression by 1d*HCl.

B16 melanoma = B16 melanoma mouse model; type: in vivo, C57BL/6 mice; conditions: 10mg/kg i.p. every other day for 9 days, day 8 and day 9, compared to vehicle-treated mice
Procedure: Animal experiments were approved by the regional ethics committee for animal research (N391/11 and N26/11), appointed and under the control of the Swedish Board of Agriculture and the Swedish Court. The animal experiments were in accordance with national regulations (SFS 1988:534, SFS 1988:539 and SFS 1988:541).
For the B16 melanoma mouse model, 6-weeks-old female C57BL/6 mice were injected subcutaneously with 1x10^6 B16 cells. When the tumors reached 80-120 mm^3, 10 mg/kg of 1d*HCl were administered intraperitoneally every other day for 9 days (days 1, 3, 5, 7, 9). Tumor volume was measured by caliper three times per week, and the volume was calculated based on the formula (in ml): L/10*W/10*W/10*0.44 (L=length, W=width of tumor). Mice were sacrificed when tumors reached 2 cm^3 or upon bleeding.
We tested the anti-tumor activity of 1d*HCl using allogenic model of B16 mice. We inoculated mice with B16 melanoma cells. When the tumors reached 100 mm^3, we treated them with i.p. injection of 1d*HCl, 10mg/kg every other day for 9 days. […] The differences in tumor volume between untreated control mice and animals treated with 1d*HCl are all statistically significant. Thus, 1d*HCl has in vivo anti-tumor activity in this animal tumor model.

GR = GR (Homo sapiens, UniProt P00390); assay: GR enzymatic activity measurement in vitro; type: biochemical; set-up: purchased Sigma; conditions: recombinant purified enzyme in vitro
GR, sequence (P00390 44-522): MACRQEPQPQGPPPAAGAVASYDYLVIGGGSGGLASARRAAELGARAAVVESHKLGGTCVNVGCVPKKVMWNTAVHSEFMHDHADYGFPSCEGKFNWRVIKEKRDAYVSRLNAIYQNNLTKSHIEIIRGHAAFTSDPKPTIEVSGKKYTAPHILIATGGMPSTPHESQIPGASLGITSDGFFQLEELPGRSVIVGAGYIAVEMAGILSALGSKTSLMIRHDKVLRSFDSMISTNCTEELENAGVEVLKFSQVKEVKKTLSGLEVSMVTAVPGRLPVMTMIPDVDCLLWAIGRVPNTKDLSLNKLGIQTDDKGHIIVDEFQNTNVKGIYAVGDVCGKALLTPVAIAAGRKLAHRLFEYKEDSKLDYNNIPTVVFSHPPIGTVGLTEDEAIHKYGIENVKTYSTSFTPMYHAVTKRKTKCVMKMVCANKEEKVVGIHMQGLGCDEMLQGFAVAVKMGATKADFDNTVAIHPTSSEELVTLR
Procedure: TrxRl enzyme was recombinantly produced with high Sec contents in a specific Release Factor 1-depleted E. coli strain and purified as previously described (Arnér ESJ, Holmgren A, in Current Protocols in Toxicology, Maines M, Costa L, Reed D, Sassa S, Eds. (John Wiley & Sons, Inc., New York, 2000), pp. 7.4.1-7.4.14). TrxRl and GSR (Sigma) recombinant enzyme assays were performed in a reaction buffer containing 50 mM Tris pH 7.5 with 2 mM EDTA and 0.1 mg/mL bovine serum albumin as described previously (Arnér ESJ, Holmgren A, in Current Protocols in Toxicology, Maines M, Costa L, Reed D, Sassa S, Eds. (John Wiley & Sons, Inc., New York, 2000), pp. 7.4.1-7.4.14). Briefly, assays were performed in triplicate using 96-well plates, with activity inferred from absorbance changes using a Spectra Max plate reader. Results of recombinant enzyme assays were normalized to DMSO and to no enzyme controls.
Glutathione reductase inhibition assay was performed according to (S. Busker, W. Qian, M. Haraldsson, B. Espinosa, L. Johansson, S. Attarha, I. Kolosenko, J. Liu, M. Dagnell, D. Grandér, E.S.J. Arnér, K. PokrovskajaTamm, B.D.G. Page. Irreversible TrxRl inhibitors block STAT3 activity and induce cancer cell death, Sci. Adv., 6 (2020), 10.1126/sciadv.aax7945). 5 or 10 µM compound was incubated with 175 µM GSH in TE buffer. […]

Cl.N#Cc1c(-c2cccnc2)[n+]([O-])c2cc(F)c(N3CCOCC3)cc2[n+]1[O-] [1d*HCl, 6-Fluoro-7-(morpholin-4-yl)-3-(pyridin-3-yl)quinoxaline-2-carbonitrile-1,4-dioxide hydrochloride]
growth suppression in the presence of NAC (HCT116 cells): almost completely abolished the growth suppression | inhibition of TrxRl activity in cells (TrxRl): 70-80% | growth suppression in the presence of selenium [1]: less efficient | tumor volume (B16 melanoma): lower volume of tumors | GR activity (GR): did not inhibit GR activity
